In patent US11813261B2, “HDAC inhibitors, alone or in combination with BTK inhibitors, for treating chronic lymphocytic leukemia” (ACETYLON PHARMACEUTICALS, INC., priority 2016, dated 2023):
“Also recorded” adds a separate entry of the source.

Tests used:
Mec1 cells = assay: IL-10 production by Mec1 cells stimulated with LPS; format: cell-based; details: Mec1 cells treated 24 hours
[1] = test system: C57BL/6 mice adoptively transferred with euTCL1 splenocytes; format: in vivo; details: for expression of PD-1 and LAG-3: adoptive transfer, Compound D feed, Compound A injection, 10 weeks post adoptive transfer
Description: (§1) Flow cytometric analysis of peripheral blood mononuclear cells (PBMCs) was performed using fluorochrome-labeled monoclonal antibodies and the vitality dye 4′,6-diamidino-2-phenylindole. Data was acquired on an LSRII cytometer (Becton, Dickinson and Company; Franklin Lakes, NJ), and analyzed with FlowJo software (FlowJo; Ashland, Oreg). Absolute cell numbers calculated using AccuCheck Counting beads (ThermoFisher Scientific; Waltham, MA).
(§2) All animal studies involving euTCL1 and its cross with HDAC6KO were performed following established protocols that followed approved Institutional Animal Care and Use Committee (IACUC) procedures. Two mouse models of CLL were used: an Aging CLL model, and an Accelerated CLL Model.
Day 0 • Adoptive transfer of 5×10^6 euTCL1 or euTCL1/1-IDAC6KO splenocytes
Week 3-5 • Flow cytometry analysis • For analysis of disease
Week 9 • Flow cytometry analysis • For analysis of disease
Week 12 • Flow cytometry analysis • For analysis of disease • Observe for survival
Flow cytometry analysis and gating: B-cells (malignant population CD19+/CD5+/CD45R (B220)+/IgM+/Igk+; for normal B-cells CD19+/CD5−/CD45R (B220)+/IgM+/Igk−T-regs were identified as CD3+/CD4+/CD25 hi/IL-7R low. For Co-inhibitory molecule expression CD223 (LAG3), CD279 (PD-1), CD274 (PDL-1), and CD273 (PDL-2).

[2] = clinical trials, myeloma and lymphoma; cited from earlier work
euTCL1 (CLL model mouse) = assay: Aging CLL model; format: in vivo
Description: as §1, §2
Birth • euTCL1 (CLL model mouse) and • euTCL1/HDAC6KO transgenic mice
5-7 Months • Flow cytometry analysis • For analysis of disease
9 Months • Flow cytometry analysis • For analysis of disease
12 Months • Flow cytometry analysis • For analysis of disease • Observe for survival B) Accelerated CLL Model

CLL = details: cited from earlier work

O=C(CCCCCCNC(=O)c1cnc(N(c2ccccc2)c2ccccc2)nc1)NO [Compound A, 2-(diphenylamino)-N-(7-(hydroxyamino)-7-oxoheptyl)pyrimidine-5-carboxamide]
IL-10 production (Mec1 cells): dose-dependent decrease
expression of PD-1 and LAG-3 [1]: lower expression; also recorded: reduced
tolerability [2]: well-tolerated

O=C(NO)c1cnc(NC2(c3ccccc3)CC2)nc1 [Compound D, N-hydroxy-2-((1-phenylcyclopropyl)amino)pyrimidine-5-carboxamide]
disease burden (euTCL1 (CLL model mouse); 9 months old/25 weeks post treatment start date, vs mice treated without Compound D): significantly lower disease burden
expression of PD-1 and LAG-3 on T-regs (euTCL1 (CLL model mouse); feed daily, flow cytometry, vs mice not treated): lower PD-1 and LAG-3 expression; also recorded: reduced
overall survival (euTCL1 (CLL model mouse); vs mice not treated): more advantageous overall survival
expression of PD-L1 on B cells ([1]; B cells isolated from treated mice vs non-treated animals): decrease
disease burden ([1]; adoptive transfer model): significantly lower disease burden
overall survival ([1]; adoptive transfer model): more advantageous overall survival
expression of PD-1 and LAG-3 [1]: lower expression; also recorded: reduced
PD-1 and LAG3 on CD4+ T-cells ([1]; treatment in chow, week 10 post-adoptive transfer, flow cytometry): normalization

Nc1ccccc1NC(=O)c1ccc(CNc2nccc(-c3cccnc3)n2)cc1 [MGCD0103]
antileukemic activity in CLL (CLL): induced antileukemic activity

CCCC(CCC)C(=O)O [valproic acid]
antileukemic activity in CLL (CLL): induced antileukemic activity
